{"source": "patent US8846698B2", "about": "“Pyrrolo[2,3-d]pyrimidine tropomysin-related kinase inhibitors” (Pfizer Limited, priority 2011, dated 2014)", "data": [{"molecular_target": "TRKA (Homo sapiens (Human), UniProt P04629)", "sequence (P04629 441-796)": "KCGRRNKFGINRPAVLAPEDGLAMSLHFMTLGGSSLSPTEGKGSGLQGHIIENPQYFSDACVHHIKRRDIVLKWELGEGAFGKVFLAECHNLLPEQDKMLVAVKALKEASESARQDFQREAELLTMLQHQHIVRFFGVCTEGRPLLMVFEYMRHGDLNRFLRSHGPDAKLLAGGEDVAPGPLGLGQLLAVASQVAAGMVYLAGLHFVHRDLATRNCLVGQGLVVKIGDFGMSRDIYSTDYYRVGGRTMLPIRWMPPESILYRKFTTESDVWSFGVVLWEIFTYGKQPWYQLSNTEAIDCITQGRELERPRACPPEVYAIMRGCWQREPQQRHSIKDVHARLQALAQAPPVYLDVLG", "assay": "Isolated TRK enzyme assay (HTRF KinEASE-TK), TRKA", "assay_type": "biochemical", "details": "read-out: Trka enzyme (IC50)", "units": {"IC50": "nM"}, "values": [{"smiles": "O=C(Cn1ccc(C(F)(F)F)n1)Nc1cncc(C(=O)c2cn(C(CO)CO)c3ncncc23)c1", "note": "[Example 283, N-[5-({7-[2-hydroxy-1-(hydroxymethyl)ethyl]-7H-pyrrolo[2,3-d]pyrimidin-5-yl}carbonyl)pyridin-3-yl]-2-[3-(trifluoromethyl)-1H-pyrazol-1-yl]acetamide]", "IC50": 297}, {"smiles": "CC(C)n1cc(C(=O)c2cncc(NC(=O)[C@@H](Cc3ccc(C(=O)c4ccccc4)cc3)NC(=O)OC(C)(C)C)c2)c2cncnc21", "note": "[Example 284, 4-benzoyl-N-alpha-(tert-butoxycarbonyl)-N-{5-[(7-isopropyl-7H-pyrrolo[2,3-d]pyrimidin-5-yl)carbonyl]pyridin-3-yl}-L-phenylalaninamide]", "IC50": 2020}, {"smiles": "CC(C)n1cc(C(=O)c2cncc(NC(=O)[C@H](N)Cc3ccc(C(=O)c4ccccc4)cc3)c2)c2cncnc21", "note": "[Example 285, 4-benzoyl-N-{5-[(7-isopropyl-7H-pyrrolo[2,3-d]pyrimidin-5-yl)carbonyl]pyridin-3-yl}-D-phenylalaninamide]", "IC50": 7820}, {"smiles": "CC(C)n1cc(C(=O)c2cncc(NC(=O)[C@@H](N)Cc3ccc(C(=O)c4ccccc4)cc3)c2)c2cncnc21", "note": "[Example 287, 4-benzoyl-N-{5-[(7-isopropyl-7H-pyrrolo[2,3-d]pyrimidin-5-yl)carbonyl]pyridin-3-yl}-L-phenylalaninamide]", "IC50": 4350}, {"smiles": "CC(C)n1cc(C(=O)c2cncc(NC(=O)Cc3cccc(C(=O)c4ccccc4)c3)c2)c2cncnc21", "note": "[Example 288, 2-(3-benzoylphenyl)-N-(5-(7-isopropyl-7H-pyrrolo[2,3-d]pyrimidine-5-carbonyl)pyridin-3-yl)acetamide]", "IC50": 43.1}, {"smiles": "CC(C)n1cc(C(=O)c2cncc(NC(=O)Cc3ccc(C(=O)c4ccccc4)cc3)c2)c2cncnc21", "note": "[Example 289, 2-(4-benzoylphenyl)-N-(5-(7-isopropyl-7H-pyrrolo[2,3-d]pyrimidine-5-carbonyl)pyridin-3-yl)acetamide]", "IC50": 1370}, {"smiles": "CC(C)n1cc(C(=O)c2cncc(NC(=O)c3cccc(C4(C(F)(F)F)N=N4)c3)c2)c2cncnc21", "note": "[Example 290, N-{5-[(7-isopropyl-7H-pyrrolo[2,3-d]pyrimidin-5-yl)carbonyl]pyridin-3-yl}-3-[3-(trifluoromethyl)-3H-diaziren-3-yl]benzamide]", "IC50": 167}, {"smiles": "CC(C)n1cc(C(=O)c2cncc(NC(=O)c3ccc(C4(C(F)(F)F)N=N4)cc3)c2)c2cncnc21", "note": "[Example 291, N-{5-[(7-isopropyl-7H-pyrrolo[2,3-d]pyrimidin-5-yl)carbonyl]pyridin-3-yl}-4-[3-(trifluoromethyl)-3H-diaziren-3-yl]benzamide]", "IC50": 3230}, {"smiles": "CC(C)n1cc(C(=O)c2cncc(NC(=O)c3cccc(C(=O)C(F)(F)F)c3)c2)c2cncnc21", "note": "[Example 292, N-{5-[(7-isopropyl-7H-pyrrolo[2,3-d]pyrimidin-5-yl)carbonyl]pyridin-3-yl}-3-(trifluoroacetyl)benzamide]", "IC50": 37.7}, {"smiles": "Cn1cc(C(=O)c2cncc(NC(=O)Nc3ccc(Cl)cc3)c2)c2cncnc21", "note": "[Example 293, 1-(4-chlorophenyl)-3-{5-[(7-methyl-7H-pyrrolo[2,3-d]pyrimidin-5-yl)carbonyl]pyridin-3-yl}urea]", "IC50": 20.2}, {"smiles": "Cn1cc(C(=O)c2cncc(NC(=O)Nc3ccc(C(F)(F)F)cc3)c2)c2cncnc21", "note": "[Example 294, 1-{5-[(7-methyl-7H-pyrrolo[2,3-d]pyrimidin-5-yl)carbonyl]pyridin-3-yl}-3-[4-(trifluoromethyl)phenyl]urea]", "IC50": 61.4}, {"smiles": "Cn1cc(C(=O)c2cncc(NC(=O)Nc3cccc(C(F)(F)F)c3)c2)c2cncnc21", "note": "[Example 295, 1-{5-[(7-methyl-7H-pyrrolo[2,3-d]pyrimidin-5-yl)carbonyl]pyridin-3-yl}-3-[3-(trifluoromethyl)phenyl]urea]", "IC50": 31.9}, {"smiles": "Cn1cc(C(=O)c2cncc(NC(=O)Nc3ccc(OC(F)(F)F)cc3)c2)c2cncnc21", "note": "[Example 296, 1-{5-[(7-methyl-7H-pyrrolo[2,3-d]pyrimidin-5-yl)carbonyl]pyridin-3-yl}-3-[4-(trifluoromethoxy)phenyl]urea]", "IC50": 47.7}, {"smiles": "CC(C)n1cc(C(=O)c2cncc(N(C)C(=O)Cc3ccc(Cl)cc3)c2)c2cncnc21", "note": "[Example 297, 2-(4-chlorophenyl)-N-{5-[(7-isopropyl-7H-pyrrolo[2,3-d]pyrimidin-5-yl)carbonyl]pyridin-3-yl}-N-methylacetamide]", "IC50": 299}, {"smiles": "CC(C)n1cc(C(=O)c2cncc(N(C)C(=O)Cc3ccc(C#N)cc3)c2)c2cncnc21", "note": "[Example 298, 2-(4-cyanophenyl)-N-{5-[(7-isopropyl-7H-pyrrolo[2,3-d]pyrimidin-5-yl)carbonyl]pyridin-3-yl}-N-methylacetamide]", "IC50": 1460}, {"smiles": "O=C(Cc1ccc(Cl)cc1)Nc1cncc(C(=O)c2cn(C3(CO)COC3)c3ncncc23)c1", "note": "[Example 299, 2-(4-Chloro-phenyl)-N-{5-[7-(3-hydroxymethyl-oxetan-3-yl)-7H-pyrrolo[2,3-d]pyrimidine-5-carbonyl]-pyridin-3-yl}-acetamide]", "IC50": 539}, {"smiles": "O=C(Cc1ccc(C(F)(F)F)cc1)Nc1cncc(C(=O)c2cn(C3(CO)COC3)c3ncncc23)c1", "note": "[Example 300, N-{5-[7-(3-Hydroxymethyl-oxetan-3-yl)-7H-pyrrolo[2,3-d]pyrimidine-5-carbonyl]-pyridin-3-yl}-2-(4-trifluoromethyl-phenyl)-acetamide]", "IC50": 52.2}, {"smiles": "O=C(Cc1ccc(Cl)cn1)Nc1cncc(C(=O)c2cn(C3(CO)COC3)c3ncncc23)c1", "note": "[Example 301, 2-(5-chloropyridin-2-yl)-N-[5-({7-[3-(hydroxymethyl)oxetan-3-yl]-7H-pyrrolo[2,3-d]pyrimidin-5-yl}carbonyl)pyridin-3-yl]acetamide]", "IC50": 428}, {"smiles": "O=C(Cn1ccc(C(F)(F)F)n1)Nc1cncc(C(=O)c2cn(C3(CO)COC3)c3ncncc23)c1", "note": "[Example 302, N-[5-({7-[3-(hydroxymethyl)oxetan-3-yl]-7H-pyrrolo[2,3-d]pyrimidin-5-yl}carbonyl)pyridin-3-yl]-2-[3-(trifluoromethyl)-1H-pyrazol-1-yl]acetamide]", "IC50": 156}, {"smiles": "NC(=O)Cn1cc(C(=O)c2cncc(NC(=O)Cc3ccc(Cl)cc3)c2)c2cncnc21", "note": "[Example 303, N-(5-{[7-(2-amino-2-oxoethyl)-7H-pyrrolo[2,3-d]pyrimidin-5-yl]carbonyl}pyridin-3-yl)-2-(4-chlorophenyl)acetamide]", "IC50": 1220}, {"smiles": "CN(C)C(=O)Cn1cc(C(=O)c2cncc(NC(=O)Cc3ccc(Cl)cc3)c2)c2cncnc21", "note": "[Example 304, 2-{5-[(5-{[(4-chlorophenyl)acetyl]amino}pyridin-3-yl)carbonyl]-7H-pyrrolo[2,3-d]pyrimidin-7-yl}-N,N-dimethylacetamide]", "IC50": 3900}, {"smiles": "CNC(=O)Cn1cc(C(=O)c2cncc(NC(=O)Cc3ccc(Cl)cc3)c2)c2cncnc21", "note": "[Example 305, 2-(4-chlorophenyl)-N-[5-({7-[2-(methylamino)-2-oxoethyl]-7H-pyrrolo[2,3-d]pyrimidin-5-yl}carbonyl)pyridin-3-yl]acetamide]", "IC50": 2640}, {"smiles": "O=C(Cc1ccc(Cl)cc1)Nc1cncc(C(=O)c2c[nH]c3ncncc23)c1", "note": "[Example 308, 2-(4-Chlorophenyl)-N-[5-(7H-pyrrolo[2,3-d]pyrimidin-5-ylcarbonyl)pyridin-3-yl]acetamide]", "IC50": 592}, {"smiles": "CC1(n2cc(C(=O)c3cncc(NC(=O)Cc4ccc(Cl)cc4)c3)c3cncnc32)COC1", "note": "[Example 309, 2-(4-chlorophenyl)-N-(5-{[7-(3-methyloxetan-3-yl)-7H-pyrrolo[2,3-d]pyrimidin-5-yl]carbonyl}pyridin-3-yl)acetamide]", "IC50": 53.9}, {"smiles": "CC1(n2cc(C(=O)c3cncc(NC(=O)Cc4ccc(Cl)cn4)c3)c3cncnc32)COC1", "note": "[Example 310, 2-(5-chloropyridin-2-yl)-N-(5-{[7-(3-methyloxetan-3-yl)-7H-pyrrolo[2,3-d]pyrimidin-5-yl]carbonyl}pyridin-3-yl)acetamide]", "IC50": 98.4}, {"smiles": "CC1(n2cc(C(=O)c3cncc(NC(=O)Cn4ccc(C(F)(F)F)n4)c3)c3cncnc32)COC1", "note": "[Example 311, N-(5-{[7-(3-methyloxetan-3-yl)-7H-pyrrolo[2,3-d]pyrimidin-5-yl]carbonyl}pyridin-3-yl)-2-[3-(trifluoromethyl)-1H-pyrazol-1-yl]acetamide]", "IC50": 238}, {"smiles": "CC1(n2cc(C(=O)c3cncc(NC(=O)Cn4cc(C(F)(F)F)nn4)c3)c3cncnc32)COC1", "note": "[Example 312, N-(5-{[7-(3-methyloxetan-3-yl)-7H-pyrrolo[2,3-d]pyrimidin-5-yl]carbonyl}pyridin-3-yl)-2-[4-(trifluoromethyl)-1H-1,2,3-triazol-1-yl]acetamide]", "IC50": 166}, {"smiles": "CS(=O)(=O)Cn1cc(C(=O)c2cncc(NC(=O)Cc3ccc(Cl)cc3)c2)c2cncnc21", "note": "[Example 314, 2-(4-chlorophenyl)-N-[5-({7-[(methylsulfonyl)methyl]-7H-pyrrolo[2,3-d]pyrimidin-5-yl}carbonyl)pyridin-3-yl]acetamide]", "IC50": 835}, {"smiles": "CC(C)n1cc(C(=O)c2cncc(NC(=O)Cc3cnn(C4CC4)c3C(F)(F)F)c2)c2cncnc21", "note": "[Example 315, 2-(1-Cyclopropyl-5-trifluoromethyl-1H-pyrazol-4-yl)-N-[5-(7-isopropyl-7H-pyrrolo[2,3-d]pyrimidine-5-carbonyl)-pyridin-3-yl]-acetamide]", "IC50": 39.1}, {"smiles": "Cn1cc(C(=O)c2cncc(NC(=O)Cc3ccc(Cl)cc3)c2)c2cncnc21", "note": "[Example 319, 2-(4-chlorophenyl)-N-{5-[(7-methyl-7H-pyrrolo[2,3-d]pyrimidin-5-yl)carbonyl]pyridin-3-yl}acetamide]", "IC50": 188}, {"smiles": "Cn1cc(C(=O)c2cncc(NC(=O)CCc3ccc(Cl)cc3)c2)c2cncnc21", "note": "[Example 320, 3-(4-chlorophenyl)-N-{5-[(7-methyl-7H-pyrrolo[2,3-d]pyrimidin-5-yl)carbonyl]pyridin-3-yl}propanamide]", "IC50": 3100}, {"smiles": "Cc1cccc(CCC(=O)Nc2cncc(C(=O)c3cn(C)c4ncncc34)c2)c1", "note": "[Example 321, 3-(3-methylphenyl)-N-{5-[(7-methyl-7H-pyrrolo[2,3-d]pyrimidin-5-yl)carbonyl]pyridin-3-yl}propanamide]", "IC50": 3100}, {"smiles": "Cn1cc(C(=O)c2cncc(NC(=O)CCc3cccnc3)c2)c2cncnc21", "note": "[Example 322, N-{5-[(7-methyl-7H-pyrrolo[2,3-d]pyrimidin-5-yl)carbonyl]pyridin-3-yl}-3-(pyridin-3-yl)propanamide]", "IC50": 9800}]}]}
